Measured values from patent publication US11142543B2 (priority 2016, dated 2021).
Marks after values point to notes of the source that are not given here.

Columns and labels:
ICR mice [1] = test: Tail suspension test (TST), Example 39; assay type: in vivo; details: gavage 10 mg/Kg for 6 days, t-test
Source text: Tail Suspension Test (TST) to Investigate the Antidepressant Activity of Some Compounds and Some Natural Products of the Present Invention
(§1) Male ICR mice (body weight, 20±2 g) used in the experiment were purchased from the Experimental Animal Center of Shanghai Institute of Materia Medica, Chinese Academy of Sciences. They were free access to water and kept at room temperature (23 2) ° C. in natural light. All mice were randomly divided into a blank control group and a test group, with 10 mice in each group and 5 mice/cage. The experiment was started after 3 days of adaptation in the breeding environment. The mice were fasted for 12 hours before the experiment but free access to water. The specific administration method was gavage administration, and the administration dose was 10 mg/Kg, and the blank control group was given an equal volume of 0.5% CMC-Na.
Specific procedures: The mice were continuously administered for 6 days, and tested 1 hour after the last administration. Firstly, the spontaneous activity of the mice was measured by the open field method, that is, the mice were individually placed in a cylindrical glass jar for 4 minutes, and the number of lifting arms within the last 2 minutes was recorded. Then the tail of the mice was stick onto the horizontal bar by the tape at 2 cm from the tip of the tail, and the animal eyesight was separated by the surrounding plates. The horizontal bar was about 25 cm from the ground, so that the mouse was about 10 cm from the ground, and the timing was 6 min. The cumulative immobility time within the last 4 minutes was recorded. Each group of mice was operated in parallel.
Experimental data processing: The experimental results were expressed as mean standard error (x SD). Statistical analysis was performed using t-test to determine whether it was significant. […] Then, the t-test was performed on the experimental index of tail suspension test to determine whether it had antidepressant effect.

ICR mice [2] = test: Toxicity observed during antidepressant efficacy screening (FST and TST animal batch); assay type: in vivo; details: same animal batch as efficacy screening, gavage 10 mg/Kg
Source text: as §1, with “dose of the administration group” for “dose”
Male ICR mice (body weight, 20±2 g) used in the experiment were purchased from the Experimental Animal Center of Shanghai Institute of Materia Medica, Chinese Academy of Sciences. They were free access to water and kept at room temperature (23 2) ° C. in natural light. All mice were randomly divided into a blank control group and a test group, with 10 mice in each group and 5 mice/cage. The experiment was started after 3 days of adaptation in the breeding environment. The mice were fasted for 12 hours before the experiment but free access to water. […]

ICR mice [3] = test: Forced swimming test (FST), Example 38; assay type: in vivo; details: gavage 10 mg/Kg for 6 days, t-test
Source text: Forced swimming test (FST) to investigate the antidepressant activity of some compounds and some natural products of the present invention
as §1, with “dose of the administration group” for “dose”
Specific procedures: The mice were continuously administered for 6 days, and tested 1 hour after the last administration. Firstly, the spontaneous activity of the mice was measured by the open field method, that is, the mice were individually placed in a cylindrical glass jar for 4 minutes, and the number of lifting arms within the last two minutes was recorded. The mice were then individually placed in a cylindrical glass jar (20 cm high and 14 cm in diameter) with a water depth of 10 cm and a water temperature of 23° C. to 25° C. After mice entered into water, a 6-minute timing was conducted, the cumulative immobility time (the criteria for determining immobility: the mice stopped struggling in the water, or floated with only small limb movements to keep the head float on the water) within the last four minutes was recorded. Each group of mice was operated in parallel.
Experimental data processing: The experimental results were expressed as mean standard error (x SD). Statistical analysis was performed using t-test to determine whether it was significant. […] Then, the t-test was performed on the experimental index of forced swimming to determine whether it had antidepressant effect.

[4] = system: ICR mice with ethanol-induced memory reproduction disorder
Method: Learning memory is an advanced function of the human and animal brains.
Before the retesting after training, the ethanol solution was administered to the mouse to block the memory reproduction process of the animal, resulting in memory reproduction disorder.
Male ICR mice, 16-18 g, were purchased from Shanghai Sippr-BK laboratory animal Co. Ltd.
40 male mice were randomly divided into 4 groups by Excel, and each group contained 10 animals. The mice in group 1 (blank group) and mice in group 2 (model group) were orally administered (i.g.) with drinking water daily.
After 3 weeks of administration, 1 hour after the last administration, the exercise was performed once in the dark avoidance method. The mice were placed in a dark avoidance box, and placed in the bright room with the back facing the hole. At the same time, the video analysis device was activated, and the animal passed through the hole into the dark room and received an electric shock, and the timing was automatically stopped. The mice were removed and the screen analysis would record the time required for each mouse to experience an electric shock from the bright room to the dark room, which was the latency period. After 24 h, the test was carried out, and 45% ethanol solution (0.1 ml/10 g) was orally administered 30 min before the test. The video analysis system would automatically record all relevant data of the animal. Data were expressed as mean standard deviation (x±s), and data difference statistics were analyzed by one-way variance (ANOVA) or X^2 test. The difference between groups was judged by P<0.05.

in vivo = details: male, SD, rat
Method: The healthy male SD rats (about 270 g) were fasted for 10 h before administration, and were free to drink water. […] The time points of blood collection from the eye socket were 30 min, 1 h, 2 h, 4 h, 6 h, 8 h, 10 h, 24 h, 48 h after the administration (n=5). […] The time points of blood collection from the eye socket were 5 min, 10 min, 30 min, 1 h, 2 h, 4 h, 8 h (n=4). The plasma was placed in a heparin-coated centrifuge tube, centrifuged for 10 min (8000 r), and the supernatant was taken and stored in a −80° C. refrigerator. After acetonitrile precipitation treatment, it was detected by HPLC-QQQ. The pharmacokinetic parameters, PK parameters of each mouse were calculated by a non-compartmental model of WinNonlin (Pharsight 6.2, NC, USA). All parameters were represented with Mean S.D. Bioavailability (F)=(AUCOral/DoseOral)/(AUCtail vein/Dosetail vein)

[5] = system: C57 mice susceptible to social defeat by CD-1 aggressive mice; test: Social defeated stress (SDS) model, Example 42; assay type: in vivo; details: C-11 10 mg/kg gavage every day, fluoxetine 10 mg/kg intraperitoneally every day, 3 weeks
Method: Male CD-1 aged 4-6 months mice which had passed childbearing age were raised separately, allowed to eat freely and adapt to the environment for about one week. Male C57 mice (aged 8-20 weeks differently) were used to screen for aggressive CD-1 mice. The mice screened by C57 were placed directly in the cage of CD-1 for 3 minutes, and the latency period for CD-1 to start showing offensive was recorded, and then the mice screened by C57 were moved out. For each CD-1 mouse, the same C57 was used to screen it three times a day, and different C57-selected mice were selected every day for a total of three days of screening. […] After screening for CD-1 aggressive mice for modeling, each C57 test mouse was exposed to different CD-1 aggressive mice for 10 consecutive days, 10 minutes each day. […] After 10 minutes of contact, the test mice were isolated from the invaders. Test mice and aggressive mice were placed in adjacent sections of the same squirrel cage, separated by a porous transparent plastic baffle, allowing test mice to be exposed under a threatening chronic stress stimulation for the next 24 hours. The control mice were placed in cages having the same structure, but the other side of the baffle was placed with other mice of the same line that were replaced daily. After 24 hours after the end of the last day of the experiment, we evaluated CSDS-induced social behavioral changes and selected all susceptible mice based on previous reports. The social interaction ratio (SI ratio) was calculated according to the following formula: SI ratio=time for the mouse in the interaction area when the aggressor exists/time for the mouse in the interaction area when the aggressor is absent. […] All selected test mice and control mice were then housed individually for 3 weeks. […] The mice in the vehicle group were administered by gavage with 0.5% CMC-Na every day. The SI ratio was assessed once a week.
Two-way ANOVA was used to analyze and LSD method was used for the multiple comparisons of calibration results. The data were expressed in Mean sem. […]

rats [6] = test: Forced swimming test in rat model, compound C-11 versus fluoxetine, Example 41; assay type: in vivo; details: vs vehicle group, FIG. 3
Method: The rats were placed in a cylindrical jar 24 hours before administration to accommodate the underwater environment for 15 min. On the day of the behavioral test, animals were administered twice and administered orally 4 h and 1 h before the behavioral test. The rats were individually placed in a cylindrical glass jar, timed for 6 minutes, and the number of arm lift was recorded within the last 2 minutes. The rats were then placed in a cylindrical glass jar having 30 cm high and 20 cm in diameter. […] Water temperature was 23° C.-25° C.

rats [7] = test: Tail suspension test in rat model, compound C-11 versus fluoxetine, Example 41; assay type: in vivo; details: vs vehicle group, FIG. 4
Method: On the day of the behavioral test, animals were dosed twice and administered orally 4 h and 1 h before the behavioral test. During the experiment, the tail of the rat was hung on a tail suspension test stand about 15 cm away from the ground with a tape or a clip at about 1 cm away from the tail end. […] The experimental time for each group was 6 minutes.

[8] = i.g. once a day for three consecutive weeks, donepezil 1.6 mg/kg, C-49 15 mg/kg, n = 10

C[C@H]1CC[C@@]2(OC1)O[C@H]1C[C@H]3[C@@H]4CC[C@@H]5C[C@H](NC(=O)NC6CCC(O)CC6)CC[C@]5(C)[C@H]4CC[C@]3(C)[C@H]1[C@@H]2C (stereo partly drawn) [compound C-5]
effect on immobility time of mouse in tail suspension test compared with the blank group (in words) (ICR mice [1]): certain antidepressant activity

C[C@H]1CC[C@@]2(OC1)O[C@H]1C[C@H]3[C@@H]4CC[C@@H]5C[C@H](NC(=O)NN6CCOCC6)CC[C@]5(C)[C@H]4CC[C@]3(C)[C@H]1[C@@H]2C [compound C-7]
effect on immobility time of mouse in tail suspension test compared with the blank group (in words) (ICR mice [1]): certain antidepressant activity

C[C@H]1CC[C@@]2(OC1)O[C@H]1C[C@H]3[C@@H]4CC[C@@H]5C[C@@H](NC(=O)NC6CCCCC6)CC[C@]5(C)[C@H]4CC[C@]3(C)[C@H]1[C@@H]2C [compound C-12]
effect on immobility time of mouse in tail suspension test compared with the blank group (in words) (ICR mice [1]): significant antidepressant activity | toxicity observed (ICR mice [2]): No significant toxicity was observed | effect on immobility time of mice in forced swimming test compared with the blank group (in words) (ICR mice [3]): significant antidepressant activity

C[C@H]1CC[C@@]2(OC1)O[C@H]1C[C@H]3[C@@H]4CC[C@@H]5C[C@H](NC(=O)Nc6ccccc6)CC[C@]5(C)[C@H]4CC[C@]3(C)[C@H]1[C@@H]2C [compound C-13]
effect on immobility time of mice in forced swimming test compared with the blank group (in words) (ICR mice [3]): significantly reduce the immobility time

COC(=O)C1(NC(=O)N[C@@H]2CC[C@@]3(C)[C@H](CC[C@@H]4[C@@H]3CC[C@]3(C)[C@@H]5[C@H](C[C@@H]43)O[C@]3(CC[C@H](C)CO3)[C@H]5C)C2)CCCCC1 [compound C-19]
effect on immobility time of mouse in tail suspension test compared with the blank group (in words) (ICR mice [1]): certain antidepressant activity

C[C@H](CO)CC[C@H]1O[C@H]2C[C@H]3[C@@H]4CC[C@@H]5C[C@H](NC(=O)NC6CCCCC6)CC[C@]5(C)[C@H]4CC[C@]3(C)[C@H]2[C@@H]1C [compound C-23]
effect on immobility time of mice in forced swimming test compared with the blank group (in words) (ICR mice [3]): certain antidepressant activity

C[C@H]1CC[C@@]2(OC1)O[C@H]1C[C@H]3[C@@H]4CC[C@@H]5C[C@H](NC(=O)N(CCO)C6CCCCC6)CC[C@]5(C)[C@H]4CC[C@]3(C)[C@H]1[C@@H]2C [compound C-35]
effect on immobility time of mouse in tail suspension test compared with the blank group (in words) (ICR mice [1]): significantly reduce the immobility time

C[C@H]1CC[C@@]2(OC1)O[C@H]1C[C@H]3[C@@H]4CC[C@@H]5C[C@H](NC(=O)N(CCNC(=O)CN(C)C)C6CCCCC6)CC[C@]5(C)[C@H]4CC[C@]3(C)[C@H]1[C@@H]2C [compound C-49]
effect on immobility time of mouse in tail suspension test compared with the blank group (in words) (ICR mice [1]): significantly reduce the immobility time | improvement effect on learning and memory (in words) ([4]; 15 mg/kg, three weeks, mice with memory reproduction disorder induced by ethanol): significant improvement effect | Number of shocked animals [4, 8]: 3* | Total number of errors (within 5 min) [4, 8]: 3** | Latency period from an open room to a dark room ([4]; i.g. once a day for three consecutive weeks, donepezil 1.6 mg/kg, C-49 15 mg/kg, x ± s, n = 10): 215.8 ± 135.8 s | bioavailability (in vivo): 11.1% | AUC (in vivo; iv, 1 mg/kg): 293 ng·h/mL | Cmax (in vivo; iv, 1 mg/kg): 285 ng/mL | Tmax (in vivo; iv, 1 mg/kg): 0.1 h | AUC (in vivo; po, 100 mg/kg): 3120 ng·h/mL | Cmax (in vivo; po, 100 mg/kg): 251 ng/mL | Tmax (in vivo; po, 100 mg/kg): 2.8 ± 1.1 h | MRT (in vivo; po, 100 mg/kg, MRT): 13.6 h | half-life (in vivo; po, 100 mg/kg, T1/2): 9.7 h | effect on immobility time of mice in forced swimming test compared with the blank group (in words) (ICR mice [3]): significantly reduced the time immobility

CNCCC(Oc1ccc(C(F)(F)F)cc1)c1ccccc1 (stereo not drawn) [fluoxetine]
mouse social time ([5]; FIG. 5A): did not work during the third week of administration | social proportion of mice (SI ratio) ([5]; FIG. 5B): not effective after three weeks of administration | effect on immobility time of rats in forced swimming test (rats [6]; dose 1.73 mg/kg oral): had no effect | effect on wall climbing behavior of rats in forced swimming test (rats [6]; dose 1.73 mg/kg oral): had no effect | effect on immobility time of rats in forced swimming test (rats [6]; dose 3.46 mg/kg oral): had no effect | effect on wall climbing behavior / wall climbing time of rats in forced swimming test (rats [6]; dose 3.46 mg/kg oral): had no effect | effect on immobility time of rats in forced swimming test (rats [6]; dose 6.92 mg/kg oral): significantly affect | effect on wall climbing behavior of rats in forced swimming test (rats [6]; dose 6.92 mg/kg oral): significantly affect | effect on cumulative immobility time of rats in tail suspension test (rats [7]; dose 1.73 mg/kg oral): had no effect | effect on cumulative immobility time of rats in tail suspension test (rats [7]; dose 3.46 mg/kg oral): had no effect | effect on cumulative immobility time of rats in tail suspension test (rats [7]; dose 6.92 mg/kg oral): significantly affect the cumulative immobility time

C[C@H]1CC[C@@]2(OC1)O[C@H]1C[C@H]3[C@@H]4CC[C@@H]5C[C@@H](O)CC[C@]5(C)[C@H]4CC[C@]3(C)[C@H]1[C@@H]2C [sarsasapogenin, reference compound]
effect on immobility time of mouse in tail suspension test compared with the blank group (in words) (ICR mice [1]): could not significantly reduce the immobility time | effect on immobility time of mice in forced swimming test compared with the blank group (in words) (ICR mice [3]): could not significantly reduce the immobility time

C[C@H]1CC[C@@]2(OC1)O[C@H]1C[C@H]3C4CC[C@@H]5C[C@@H](O[C@@H]6OC(CO)[C@H](O)[C@H](O)C6O)CC[C@]5(C)C4CC[C@]3(C)C1[C@@H]2C (stereo partly drawn) [timosaponin A1, reference compound]
effect on immobility time of mouse in tail suspension test compared with the blank group (in words) (ICR mice [1]): could not significantly reduce the immobility time | effect on immobility time of mice in forced swimming test compared with the blank group (in words) (ICR mice [3]): could not significantly reduce the immobility time
